Data on 22 compounds can be found in patent US11708369B2, “Heteroaromatic compounds having activity against RSV” (Janssen Sciences Ireland Unlimited Company, priority 2018, dated 2023).

A short description of one data set: in vitro. Conditions: human.
For another data set, the system named is rgRSV224 virus. The data set is described as follows: Antiviral activity: rgRSV224 (GFP) replication in HeLa cells. Conditions: human respiratory syncytial virus, 72 h, read-out: RSV HELA EC50.

Some results are limits rather than exact numbers.

Description for in vitro: The wells contain 0.05% DMSO per volume. Cells were incubated at 37° C. in a 5% CO2 atmosphere. […] In parallel, compounds were incubated for three days in a set of white 384-well microtiter plates (Corning) and the cytotoxicity of compounds in HeLa cells was determined by measuring the ATP content of the cells using the ATPlite kit (Perkin Elmer, Zaventem, Belgium) according to the manufacturer's instructions. The CC50 was defined as the 50% concentration for cytotoxicity.
Description for rgRSV224 virus: Black 384-well clear-bottom microtiter plates (Corning, Amsterdam, The Netherlands) were filled via acoustic drop ejection using the echo liquid handler (Labcyte, Sunnyvale, Calif.). 200 nL of compound stock solutions (100% DMSO) were transferred to the assay plates. 9 serial 4-fold dilutions of compound were made, creating per quadrant the same compound concentration. The assay was initiated by adding 10 μL of culture medium to each well (RPMI medium without phenol red, 10% FBS-heat inactivated, 0.04% gentamycin (50 mg/mL). All addition steps are done by using a multidrop dispenser (Thermo Scientific, Erembodegem, Belgium). Next, rgRSV224 virus (MOI=1) diluted in culture medium was added to the plates. rgRSV224 virus is an engineered virus that includes an additional GFP gene (Hallak L K, Spillmann D, Collins P L, Peeples M E. Glycosaminoglycan sulfation requirements for respiratory syncytial virus infection; Journal of virology (2000), 74(22), 10508-13) and was in-licensed from the NIH (Bethesda, Md., USA). Finally, 20 μL of a HeLa cell suspension (3,000 cells/well) were plated. Medium, virus- and mock-infected controls were included in each test. The wells contain 0.05% DMSO per volume. Cells were incubated at 37° C. in a 5% CO2 atmosphere. Three days post-virus exposure, viral replication was quantified by measuring GFP expression in the cells by an in house developed MSM laser microscope (Tibotec, Beerse, Belgium). The EC50 was defined as the 50% inhibitory concentration for GFP expression. In parallel, compounds were incubated for three days in a set of white 384-well microtiter plates (Corning) and the cytotoxicity of compounds in HeLa cells was determined by measuring the ATP content of the cells using the ATPlite kit (Perkin Elmer, Zaventem, Belgium) according to the manufacturer's instructions. The CC50 was defined as the 50% concentration for cytotoxicity.

With `C[C@@H]1c2ccccc2CCN1C(=O)c1cc2cc(-c3ccc(N4CC[C@H](C(N)=O)C4)cc3F)nn2c(C2CC2)n1` [Compound 22, (3S)-1-(4-{7-Cyclopropyl-5-[(1R)-1-methyl-1,2,3,4-tetrahydroisoquinoline-2-carbonyl]pyrazolo[1,5-c]pyrimidin-2-yl}-3-fluorophenyl)pyrrolidine-3-carboxamide], the CC50 at 3 days in the data set “in vitro” is > 100 µM. Also, the EC50 (commonly the concentration at which the effect is half-maximal) in the data set on rgRSV224 virus was 0.87 µM.

`C[C@@H]1c2ccccc2CCN1C(=O)c1cc(C2CC2)n2nc(-c3ccc(N4CC[C@H](C(N)=O)C4)cc3F)nc2c1` [Compound 20, (3S)-1-(4-{5-Cyclopropyl-7-[(1R)-1-methyl-1,2,3,4-tetrahydroisoquinoline-2-carbonyl]-[1,2,4]triazolo[1,5-a]pyridin-2-yl}-3-fluorophenyl)pyrrolidine-3-carboxamide] returned a CC50 at 3 days in “in vitro” of 45.6 µM. Also, the EC50 in the data set on rgRSV224 virus was 0.102 µM.

With `C[C@@H]1c2ccccc2CCN1C(=O)c1cc(C2CC2)n2c(F)c(-c3ccc([C@H]4C[C@H]4C(=O)O)cc3F)nc2n1` (mixture of isomers) [Compound 26, cis-2-(4-{5-cyclopropyl-3-fluoro-7-[(1R)-1-methyl-1,2,3,4-tetrahydroisoquinoline-2-carbonyl]imidazo[1,2-a]pyrimidin-2-yl}-3-fluorophenyl)cyclopropane-1-carboxylic Acid], the CC50 at 3 days in “in vitro” was 77.2 µM. Besides, the EC50 with rgRSV224 virus was 3.42 µM.

For `C[C@@H]1c2ccccc2CCN1C(=O)c1cc(C2CC2)n2nc(-c3ccc(N4CC[C@H](C(=O)O)C4)cc3F)nc2c1` [Compound 19, (3S)-1-(4-{5-Cyclopropyl-7-[(1R)-1-methyl-1,2,3,4-tetrahydroisoquinoline-2-carbonyl]-[1,2,4]triazolo[1,5-a]pyridin-2-yl}-3-fluorophenyl)pyrrolidine-3-carboxylic Acid], the CC50 at 3 days in the data set “in vitro” worked out at 60.9 µM. Moreover, the EC50 in the data set on rgRSV224 virus is 0.1 µM.

In the data set “in vitro”, `C[C@@H]1c2ccccc2CCN1C(=O)c1cc(C2CC2)n2nc(-c3ccc(N4CC[C@H](C(N)=O)C4)cc3F)cc2c1F` [Compound 10, (3S)-1-(4-{7-Cyclopropyl-4-fluoro-5-[(1R)-1-methyl-1,2,3,4-tetrahydroisoquinoline-2-carbonyl]pyrazolo[1,5-a]pyridin-2-yl}-3-fluorophenyl)pyrrolidine-3-carboxamide] came in with a CC50 at 3 days of 40.4 µM. For the same compound, the EC50 with rgRSV224 virus amounted to 0.062 µM.

`C[C@@H]1c2ccccc2CCN1C(=O)c1cc(C2CC2)n2nc(-c3ccc(C4C[C@H]4C(=O)O)cc3F)nc2c1` (relative stereo) [Compound 16, trans-2-(4-{5-Cyclopropyl-7-[(1R)-1-methyl-1,2,3,4-tetrahydroisoquinoline-2-carbonyl]-[1,2,4]triazolo[1,5-a]pyridin-2-yl}-3-fluorophenyl)cyclopropane-1-carboxylic Acid] showed a CC50 at 3 days in the data set “in vitro” of 79.4 µM. For the same compound, in the data set with rgRSV224 virus, the EC50 was 0.182 µM.

With `C[C@@H]1c2ccccc2CCN1C(=O)c1cc(C2CC2)n2cc(-c3ccc(C4C[C@H]4C(=O)O)cc3F)nc2n1` (relative stereo) [Compound 24, trans-2-(4-{5-Cyclopropyl-7-[(1R)-1-methyl-1,2,3,4-tetrahydroisoquinoline-2-carbonyl]imidazo[1,2-a]pyrimidin-2-yl}-3-fluorophenyl)cyclopropane-1-carboxylic Acid], in the data set “in vitro”, the CC50 at 3 days worked out at 69.7 µM. Also, the 50% effective concentration (EC50) in the data set on rgRSV224 virus turned out to be 0.105 µM.

`CCc1cc(C(=O)N2CCc3ccccc3[C@H]2C)cc2cc(-c3ccc([C@H]4C[C@@H]4C(N)=O)cc3F)cn12` [Compound 2] came in with a CC50 at 3 days in “in vitro” of 52.7 µM. The 50% effective concentration (EC50) with rgRSV224 virus amounted to 0.344 µM.

Consider `C[C@@H]1c2ccccc2CCN1C(=O)c1cc(C2CC2)n2nc(-c3ccc(N4CC[C@H](C(=O)O)C4)cc3F)cc2c1` [Compound 7, (3S)-1-(4-{7-Cyclopropyl-5-[(1R)-1-methyl-1,2,3,4-tetrahydroisoquinoline-2-carbonyl]pyrazolo[1,5-a]pyridin-2-yl}-3-fluorophenyl)pyrrolidine-3-carboxylic Acid], for which the CC50 at 3 days in the data set “in vitro” is 48 µM. Also, in the data set on rgRSV224 virus, the EC50 was determined as 0.064 µM.

With `C[C@@H]1c2ccccc2CCN1C(=O)c1cc(C2CC2)n2nc(-c3ccc(C4C[C@H]4C(=O)O)cc3F)cc2c1F` (relative stereo) [Compound 6, trans-2-(4-{7-Cyclopropyl-4-fluoro-5-[(1R)-1-methyl-1,2,3,4-tetrahydroisoquinoline-2-carbonyl]pyrazolo[1,5-a]pyridin-2-yl}-3-fluorophenyl)cyclopropane-1-carboxylic Acid], the CC50 at 3 days in the data set “in vitro” came to 50.2 µM. Moreover, in the data set on rgRSV224 virus, the EC50 worked out at 0.09 µM.

As for `CCc1cc(C(=O)N2CCc3ccccc3[C@H]2C)c(OC)c2cc(-c3ccc(C4C[C@H]4C(=O)O)cc3F)nn12` (relative stereo) [Compound 5, trans-2-(4-{7-Ethyl-4-methoxy-5-[(1R)-1-methyl-1,2,3,4-tetrahydroisoquinoline-2-carbonyl]pyrazolo[1,5-a]pyridin-2-yl}-3-fluorophenyl)cyclopropane-1-carboxylic Acid], the CC50 at 3 days in “in vitro” came to 47.2 µM. In the data set with rgRSV224 virus, the EC50 came out at 1.7 µM.

As to `C[C@@H]1c2ccccc2CCN1C(=O)c1cc(C2CC2)n2nc(-c3ccc(C4C[C@@H]4C(=O)O)cc3F)nc2c1` (relative stereo) [Compound 17, cis-2-(4-{5-Cyclopropyl-7-[(1R)-1-methyl-1,2,3,4-tetrahydroisoquinoline-2-carbonyl]-[1,2,4]triazolo[1,5-a]pyridin-2-yl}-3-fluorophenyl)cyclopropane-1-carboxylic Acid], the CC50 at 3 days in the data set “in vitro” was > 100 µM. Besides, the EC50 in the data set on rgRSV224 virus was 2.01 µM.

In turn, `C[C@@H]1c2ccccc2CCN1C(=O)c1cc(C2CC2)n2cc(-c3ccc(N4CC[C@H](C(=O)O)C4)cc3F)nc2n1` [Compound 27, (3S)-1-(4-{5-Cyclopropyl-7-[(1R)-1-methyl-1,2,3,4-tetrahydroisoquinoline-2-carbonyl]imidazo[1,2-a]pyrimidin-2-yl}-3-fluorophenyl)pyrrolidine-3-carboxylic Acid] returned a CC50 at 3 days in the data set “in vitro” of 40.4 µM. In addition, the EC50 with rgRSV224 virus turned out to be 0.159 µM.

`C[C@@H]1c2ccccc2CCN1C(=O)c1cc(C2CC2)n2nc(-c3ccc(C4C[C@H]4C(N)=O)cc3F)nc2c1` (relative stereo) [Compound 18, trans-2-(4-{5-Cyclopropyl-7-[(1R)-1-methyl-1,2,3,4-tetrahydroisoquinoline-2-carbonyl]-[1,2,4]triazolo[1,5-a]pyridin-2-yl}-3-fluorophenyl)cyclopropane-1-carboxamide] came in with a CC50 at 3 days in the data set “in vitro” of 47.9 µM. In the data set on rgRSV224 virus, the half-maximal effective concentration (EC50) turned out to be 0.178 µM.

Take `C[C@@H]1c2ccccc2CCN1C(=O)c1cc(C2CC2)n2cc(-c3ccc(N4CC[C@H](C(N)=O)C4)cc3F)nc2n1` [Compound 28, (3S)-1-(4-{5-Cyclopropyl-7-[(1R)-1-methyl-1,2,3,4-tetrahydroisoquinoline-2-carbonyl]imidazo[1,2-a]pyrimidin-2-yl}-3-fluorophenyl)pyrrolidine-3-carboxamide]: in the data set “in vitro”, the CC50 at 3 days was 22.3 µM. The EC50 with rgRSV224 virus stood at 0.112 µM.

Regarding `C[C@@H]1c2ccccc2CCN1C(=O)c1cc2cc(-c3ccc(N4CC[C@H](C(=O)O)C4)cc3F)nn2c(C2CC2)n1` [Compound 21, (3S)-1-(4-{7-Cyclopropyl-5-[(1R)-1-methyl-1,2,3,4-tetrahydroisoquinoline-2-carbonyl]pyrazolo[1,5-c]pyrimidin-2-yl}-3-fluorophenyl)pyrrolidine-3-carboxylic Acid], in the data set “in vitro”, the CC50 at 3 days was found to be 29.8 µM. The EC50 with rgRSV224 virus turned out to be 0.564 µM.

In “in vitro”, `C[C@@H]1c2ccccc2CCN1C(=O)c1cc(C2CC2)n2nc(-c3ccc(N4CC[C@H](C(N)=O)C4)cc3F)cc2c1` [Compound 8, (3S)-1-(4-{7-Cyclopropyl-5-[(1R)-1-methyl-1,2,3,4-tetrahydroisoquinoline-2-carbonyl]pyrazolo[1,5-a]pyridin-2-yl}-3-fluorophenyl)pyrrolidine-3-carboxamide] came in with a CC50 at 3 days of 53.4 µM. Moreover, the EC50 in the data set on rgRSV224 virus was found to be 0.054 µM.

Regarding `C[C@@H]1c2ccccc2CCN1C(=O)c1cc(C2CC2)n2c(F)c(-c3ccc([C@@H]4C[C@H]4C(=O)O)cc3F)nc2n1` (mixture of isomers) [Compound 25, trans-2-(4-{5-cyclopropyl-3-fluoro-7-[(1R)-1-methyl-1,2,3,4-tetrahydroisoquinoline-2-carbonyl]imidazo[1,2-a]pyrimidin-2-yl}-3-fluorophenyl)cyclopropane-1-carboxylic Acid], the CC50 at 3 days in “in vitro” worked out at 22.3 µM. Also, the 50% effective concentration (EC50) in the data set with rgRSV224 virus stood at 0.112 µM.

For the compound `CNC(=O)[C@H]1CCN(c2ccc(-c3cc4cc(C(=O)N5CCc6ccccc6[C@H]5C)nc(C5CC5)n4n3)c(F)c2)C1` [Compound 23, (3S)-1-(4-{7-Cyclopropyl-5-[(1R)-1-methyl-1,2,3,4-tetrahydroisoquinoline-2-carbonyl]pyrazolo[1,5-c]pyrimidin-2-yl}-3-fluorophenyl)-N-methylpyrrolidine-3-carboxamide], the CC50 at 3 days in “in vitro” was > 100 µM. Besides, the concentration giving a half-maximal response (EC50) in the data set with rgRSV224 virus came to 0.882 µM.

On to `CCc1cc(C(=O)N2CCc3ccccc3[C@H]2C)c(C)c2cc(-c3ccc(N4CC[C@H](C(=O)O)C4)cc3F)nn12` [Compound 9, (3S)-1-(4-{7-Ethyl-4-methyl-5-[(1R)-1-methyl-1,2,3,4-tetrahydroisoquinoline-2-carbonyl]pyrazolo[1,5-a]pyridin-2-yl}-3-fluorophenyl)pyrrolidine-3-carboxylic Acid], for which the CC50 at 3 days in “in vitro” amounted to 50.6 µM. In the data set on rgRSV224 virus, the EC50 was found to be 0.596 µM.

For `CCc1cc(C(=O)N2CCc3ccccc3[C@H]2C)cc2cc(-c3ccc([C@H]4C[C@@H]4C(=O)O)cc3F)cn12` [Compound 1, (1S,2S)-2-(4-{5-Ethyl-7-[(1R)-1-methyl-1,2,3,4-tetrahydroisoquinoline-2-carbonyl]indolizin-2-yl}-3-fluorophenyl)cyclopropane-1-carboxylic Acid], in the data set “in vitro”, the CC50 at 3 days came out at 45.1 µM. Further, in the data set on rgRSV224 virus, the EC50 was found to be 0.195 µM.

In the case of `CCc1cc(C(=O)N2CCc3ccccc3[C@H]2C)cc2cc(-c3ccc(C4C[C@H]4C(=O)O)cc3F)nn12` (relative stereo) [Compound 4, Trans-2-(4-{7-ethyl-5-[(1R)-1-methyl-1,2,3,4-tetrahydroisoquinoline-2-carbonyl]pyrazolo[1,5-a]pyridin-2-yl}-3-fluorophenyl)cyclopropane-1-carboxylic Acid], the CC50 at 3 days in “in vitro” turned out to be 57.6 µM. For the same compound, the EC50 with rgRSV224 virus came to 0.219 µM.
